# Measured values as given in BindingDB's records for doi:10.1021/jm00037a008 (Institute, 1994).
# What was measured:
# [1] = Evaluation for the inhibition of kappa opioid binding to bovine striatal membranes by the affinity ligand 1 nM [3H]U-69593
# [2] = Evaluation for the inhibition of delta opioid binding to bovine striatal membranes by the affinity ligand 0.2 nM [3H]p-Cl-DPDPE
smiles,measurement,setting,value
"CN1CC[C@]23c4c5ccc(O)c4O[C@H]2C(=O)CC[C@@]3(NC(=O)CS)C1C5 [1N-[10-hydroxy-4-methyl-14-oxo-12-oxa-4-azapentacyclo[9.6.1.01,13.05,17.07,18]octadeca-7,9,11(18)-trien-17-yl]-2-sulfanylacetamide]",IC50,[1],0.041 µM
same,IC50,[2],0.012 µM
